Laboratory results: patent publication US9393316B2, “Cancer targeting peptides for enhancing anti-cancer drug delivery and therapeutic efficiencies” (priority 2014, dated 2016)

Assays:
[1] = test system: B16-F10; assay: Cellular ELISA of phage clones; type: binding, mouse
Method: (§1) The selected phages were further identified by ELISA screening. 1×10^4 cells were seeded into each well of 96-well ELISA plates (Falcon, Calif., USA) overnight and were fixed with 2% paraformaldehyde or methanol/acetone (1:1) for 10 min at RT. The plates were washed twice with PBS and were blocked with 1% BSA in PBS (w/v) for 30 min at RT. Then individual phage clones were added and incubated for 1 hr at RT. Following washing three times with PBS, the plates were incubated with horseradish peroxidase (HRP)-conjugated mouse anti-M13 phage antibody (GE Healthcare) at 1:2000 dilution for 1 hr at RT. The plates were washed three times with PBS again, and were subsequently incubated with the peroxidase substrate o-phenylenediamine dihydrochloride (OPD; Sigma) plus H2O2. The reaction was terminated by 3 N HCl, and the absorbance was measured using microplate reader (Model 680, BioRad) at 490 nm. To evaluate the binding activities of the three selected phage clones to various human cancer cell lines, cellular ELISA was performed to detect sixteen types of human cancer cell lines, including A498, HTB-10, B16-F10, SKOV3, PC-3, U2OS, 1112SK, […], SAS, H460, MIA Paca-2, HCT116, HUVAC, CL1-5, Mahlavu, and MDA-MB-231.

[2] = test system: HCT116 xenografts; assay: In vivo tumor homing, phage titer in tumor and organs; set-up: species or system mice; details: 2×10^11 pfu i.v., PBS perfusion; vs brain, lungs, heart
Method: Non-obese diabetic-severe combined immunodeficiency (NOD/SCID) mice were injected subcutaneously (s.c.) into the dorsolateral flank with 5×10^6 HCT116 cells. When the xenograft tumor size reached 300±50 mm^3, the mice were injected intravascularly (i.v.) with 2×10^11 pfu of the targeting phage or control phage M13KO7. Seven min after injection, the mice were sacrificed and perfused through the heart with 50 mL of PBS to wash unbound phages. After perfusion, xenograft tumor and mouse organs were taken out, washed three times with cold PBS, and cut into pans, with some of them homogenized. The phages bound to each tissue sample were recovered by log-phase Escherichia coli ER2738 culture and were titered on LB/IPTG/X-Gal agar plates. In peptide competitive inhibition experiments, 2×10^9 pfu of phage was co-injected with 100 μg of corresponding peptide or an unrelated control peptide.
To investigate the targeting ability of the selected phage clones in vivo, mice bearing HCT116 xenografts (300 mm^3) were injected with 2×10^11 pfu of either the selected phages or control phage through the tail vein. Phages were circulated and then were perfused with PBS buffer to wash out non-specific binders in circulation. After perfusion, we recovered and determined the […] of phage in tumor masses and normal organs.

[3] = test system: 1112SK; assay: Cellular ELISA of phage clones; type: binding, human
Method: as §1

[4] = test system: Mahlavu; assay: Cellular ELISA of phage clones; type: binding, human
Method: as §1

[5] = test system: H460; assay: Cellular ELISA of phage clones; type: binding, human
Method: as §1

[6] = test system: PC-3; assay: Cellular ELISA of phage clones; type: binding, human
Method: as §1

[7] = test system: SKOV3; assay: Cellular ELISA of phage clones; type: binding, human
Method: as §1

[8] = test system: MIA Paca-2; assay: Cellular ELISA of phage clones; type: binding, human
Method: as §1

[9] = test system: MDA-MB-231; assay: Cellular ELISA of phage clones; type: binding, human
Method: as §1

[10] = test system: HUVAC; assay: Cellular ELISA of phage clones; type: binding, human
Method: as §1

[11] = test system: SAS; assay: Cellular ELISA of phage clones; type: binding, human
Method: as §1

[12] = test system: CL1-5; assay: Cellular ELISA of phage clones; type: binding, human
Method: as §1

[13] = test system: U2OS; assay: Cellular ELISA of phage clones; type: binding, human
Method: as §1

[14] = test system: HTB-10; assay: Cellular ELISA of phage clones; type: binding, human
Method: as §1

[15] = test system: H184; assay: Cellular ELISA of phage clones; type: binding, human
Method: as §1

[16] = test system: A498; assay: Cellular ELISA of phage clones; type: binding, human
Method: as §1

**Q.** For SSMDIVLRAPLM [HCT74], which “binding by cellular ELISA” value [1] is on record?
**A.** highly specific binding

**Q.** And the “phage accumulation in tumor mass vs normal organs (phage titer)” value [2]?
**A.** significantly accumulated in the tumor mass

**Q.** What about the “binding by cellular ELISA” value [3] of the same sequence?
**A.** highly specific binding

**Q.** What about the “binding by cellular ELISA” value [4] of the same sequence?
**A.** highly specific binding

**Q.** What about the “binding by cellular ELISA” value [5] of the same sequence?
**A.** highly specific binding

**Q.** And the “binding by cellular ELISA” value [6]?
**A.** highly specific binding

**Q.** And the “binding by cellular ELISA” value [7]?
**A.** highly specific binding

**Q.** And the “binding by cellular ELISA” value [8]?
**A.** highly specific binding

**Q.** And the “binding by cellular ELISA” value [9]?
**A.** highly specific binding

**Q.** And the “binding by cellular ELISA” value [10]?
**A.** highly specific binding

**Q.** What about the “binding by cellular ELISA” value [11] of the same sequence?
**A.** highly specific binding

**Q.** And the “binding by cellular ELISA” value [12]?
**A.** moderate binding

**Q.** What about the “binding by cellular ELISA” value [13] of the same sequence?
**A.** highly specific binding

**Q.** What about the “binding by cellular ELISA” value [14] of the same sequence?
**A.** moderate binding

**Q.** What about the “binding by cellular ELISA” value [15] of the same sequence?
**A.** highly specific binding

**Q.** What about the “binding by cellular ELISA” value [16] of the same sequence?
**A.** highly specific binding
